# Data from publication PMC11352409, “Subtype-Specific Ligand Binding and Activation Gating in Homomeric and Heteromeric P2X Receptors” (Biomolecules, 2024).
# Columns and labels:
# Assay type in all cases: cell-based
# [1] = target: T1, human P2X2/3 receptors (Homo sapiens, UniProt P56373+Q9UBL9); test: Whole-cell patch-clamp concentration-activation, HEK293 cells stably expressing hP2X2/3; conditions: for Hill: hP2X2/3, Hill coefficient of concentration-activation fit; for Effect (Fold in ATP Efficacy): hP2X2/3, relative to current at 100 µM ATP; for EC50: hP2X2/3, whole-cell, -50 mV, divalent-cation-free bath with 10 mM EGTA, normalised to 100 µM ATP
# T1 construct: expressed in transfected cells
# T1 sequence (Q9UBL9 1-404 isoform Q9UBL9-2): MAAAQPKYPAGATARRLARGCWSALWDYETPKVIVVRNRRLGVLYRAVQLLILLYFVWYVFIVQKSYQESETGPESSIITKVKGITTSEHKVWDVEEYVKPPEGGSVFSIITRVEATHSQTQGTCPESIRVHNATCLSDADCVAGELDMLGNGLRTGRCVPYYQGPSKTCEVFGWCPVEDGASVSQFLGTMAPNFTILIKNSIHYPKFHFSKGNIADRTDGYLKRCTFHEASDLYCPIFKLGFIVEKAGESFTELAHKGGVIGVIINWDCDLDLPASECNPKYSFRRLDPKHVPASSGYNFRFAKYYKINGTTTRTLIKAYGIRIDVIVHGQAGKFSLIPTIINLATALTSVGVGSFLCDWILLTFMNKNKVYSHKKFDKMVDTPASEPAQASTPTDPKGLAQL
# T1 sequence (P56373 1-397): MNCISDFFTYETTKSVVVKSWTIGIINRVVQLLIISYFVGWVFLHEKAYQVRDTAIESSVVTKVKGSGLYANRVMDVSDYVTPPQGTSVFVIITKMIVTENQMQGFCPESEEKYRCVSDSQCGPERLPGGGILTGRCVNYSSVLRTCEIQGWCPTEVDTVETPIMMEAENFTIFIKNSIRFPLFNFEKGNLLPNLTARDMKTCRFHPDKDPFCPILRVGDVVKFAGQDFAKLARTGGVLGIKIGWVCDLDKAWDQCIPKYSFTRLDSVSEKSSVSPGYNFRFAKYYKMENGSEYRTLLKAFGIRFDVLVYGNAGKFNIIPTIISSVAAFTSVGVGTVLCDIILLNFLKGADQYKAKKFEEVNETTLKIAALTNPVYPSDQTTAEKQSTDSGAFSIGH
# Procedure: (§1) Human P2X receptors were expressed from HEK293 cell lines containing an inducible promoter system (Flp-In-T-REx 293, Invitrogen, Waltham, MA, USA). The used cell lines were: hP2X2 B (RRID: AC line CVCL_D6U1), hP2X3 (RRID: AC line CVCL_D6U3), and hP2X2/3 (RRID: AC line CVCL_D6U2). The cells were cultured in MEM supplemented with non-essential amino acids (Gibco, Waltham, MA, USA), 10% FCS, and antibiotics, according to the manufacturer’s instructions. For stable cell lines, Flp-In-T-REx 293 cells were transfected using the calcium phosphate method with a mixture of plasmids (0.3 µg pcDNA5/FRT/TO P2X gene and 1.5 µg pOG44) and selected for hygromycin resistance. The cells were seeded on glass coverslips for electrophysiological measurements and used 24–48 h after tetracycline induction ([…]).
# (§2) Membrane currents were recorded with a standard patch-clamp technique in the whole-cell configuration. The patch pipettes were pulled from borosilicate glass (ID 1.0 mm, OD 2.0 mm; VITROCOM, Mountain Lakes, NJ, USA) using a micropipette puller (P-97, Sutter Instrument, Novato, CA, USA). The pipettes were filled with intracellular solution containing (mM) 142 NaCl, 5 BAPTA, 5 EGTA, and 10 HEPES at pH 7.4. The pipette resistance was from 2.0 to 6.0 MΩ. The bath solution contained (mM) 142 NaCl, 10 EGTA, 10 HEPES, and 10 glucose at pH 7.4. To increase the speed of recovery from the hP2X3 receptors, we additionally used a bath solution containing (mM) 142 NaCl, 10 HEPES, 10 glucose, 2 CaCl2, and 1 MgCl2. The cells were lifted for recording from the chamber bottom by the patch pipette and positioned in front of the outlet of the application pipette.
# (§3) Solutions switches were carried out with the application pipette that had three barrels (inner diameter ~600 µm, Warner Instruments) controlled by a step motor (SF-77B, Warner Instruments). The speed of the laminar solution flow out of the barrels was estimated to be 2–5 cm/s. One barrel contained a control solution and another was connected to a solution selector (Vici Valco Instruments), which allowed us to apply different test solutions by exchanging the solution during the interval (60 sec for P2X2 and P2X2/3 receptors, 180 s for P2X3 receptors) of applying the control solution. Cells expressing hP2X3 were washed with 3 Units/mL apyrase for 30 min to remove ATP. To ensure the comparability of the data points between each application, we rinsed hP2X3 with the following solution for 3 min after each ATP application (mM): 142 NaCl, 10 HEPES, 10 glucose, 2 CaCl2, and 1 MgCl2 at pH 7.4. After sufficient recovery, we switched to the bath solution for 10 s and then to the solution of interest. The speed of the switch around a whole cell was estimated to be below 10 ms by switching between different salt solutions.
# (§4) The saturation of activation was determined with ATP at 100 µM. The currents were recorded with a HEKA EPC 10 amplifier in combination with the patchmaster software. The sampling rate was 10 kHz and the recordings were on-line filtered at 2.9 kHz using a four-pole Bessel filter. The currents were recorded at a constant holding potential of −50 mV and the series resistance was compensated with the patchmaster software up to 80%.
# (§5) The concentration–activation relationships from whole-cell measurements in the HEK293 cells were obtained from the maximum currents during ATP application. These current amplitudes were normalised with respect to the current at saturating ATP (100 µM) and the resulting data points were fitted I/ImaxATP = Amp/(1 + (EC50/[X])^h) (1) with the Origin 2019® software using a non-linear curve fitting routine. I is the actual current amplitude and ImaxATP is the maximum current amplitude at saturating ATP. The amplitude Amp is the efficacy of the respective ligands. EC50 is the ligand concentration generating the half-maximum current and h is the respective Hill coefficient. [X] is the actual concentration of ATP to be tested. […]
# [2] = target: T2, human P2X2 receptors (Homo sapiens, UniProt Q9UBL9); test: Whole-cell patch-clamp concentration-activation, HEK293 cells stably expressing hP2X2
# T2 construct: expressed in transfected cells
# T2 sequence (Q9UBL9 1-404 isoform Q9UBL9-2): T1 sequence (Q9UBL9 1-404 isoform Q9UBL9-2)
# Procedure: as §1, §2, §3, §4, §5
# [3] = target: T3, human P2X3 receptors (Homo sapiens, UniProt P56373); test: Whole-cell patch-clamp concentration-activation, HEK293 cells stably expressing hP2X3; conditions: for Hill: hP2X3, Hill coefficient of concentration-activation fit; for Effect (Fold in ATP Potency): hP2X3, relative to ATP; for Effect (Fold in ATP Efficacy): hP2X3, relative to current at 100 µM ATP; for EC50: hP2X3, whole-cell, -50 mV, divalent-cation-free bath with 10 mM EGTA, normalised to 100 µM ATP
# T3 construct: expressed in transfected cells
# T3 sequence (P56373 1-397): T1 sequence (P56373 1-397)
# Procedure: as §1, §2, §3, §4, §5
smiles,measurement,setting,value
"COCC[N+]1=C(C=CC=C2N(CCCCCC(=O)NCCCCCCSc3nc(N)c4ncn(C5OC(COP(=O)(O)CP(=O)(O)OP(=O)(O)O)C(O)C5O)c4n3)c3ccc(S(=O)(=O)O)cc3C2(C)C)C(C)(C)c2cc(S(=O)(=O)[O-])ccc21 (stereo not drawn) [α,βMe-fATP, 2-[DY-547P1]-AHT-α,βMe-ATP]",Hill,[1],4.4 ± 3.5
same,Effect (Fold in ATP Potency),"[1]; hP2X2/3, relative to ATP",1.8 fold
same,Effect (Fold in ATP Efficacy),[1],0.03 fold
same,EC50,[1],1.5 ± 0.6 µM
same,Elevation of activation level on co-application with ATP,"[2]; hP2X2, 10 µM α,βMe-fATP co-applied with 0.1 µM ATP, versus ATP alone",approximately 55%
same,Effect of ligand alone on current,"[2]; hP2X2, α,βMe-fATP alone (10 µM)",no discernible effect
same,Hill,[3],3.5 ± 0.0
same,Effect (Fold in ATP Potency),[3],0.1 fold
same,Effect (Fold in ATP Efficacy),[3],1.0 fold
same,EC50,[3],8.1 µM
"COCC[N+]1=C(C=CC=C2N(CCCCCC(=O)NCCCCCCSc3nc(N)c4ncn(C5OC(COP(=O)(O)OP(=O)(O)OP(=O)(O)O)C(O)C5O)c4n3)c3ccc(S(=O)(=O)O)cc3C2(C)C)C(C)(C)c2cc(S(=O)(=O)[O-])ccc21 (centres unmarked) [fATP, 2-[DY-547P1]-AHT-ATP]",Hill,[1],0.9 ± 0.2
same,Effect (Fold in ATP Efficacy),[1],0.4 fold
same,Agonist behaviour (current response),"[1]; hP2X2/3, result in words",partial agonist
same,EC50,[1],0.7 ± 0.3 µM
same,Hill,"[2]; hP2X2, Hill coefficient of concentration-activation fit",1.4 ± 0.1
same,Effect (Fold in ATP Potency),"[2]; hP2X2, relative to ATP",0.2 fold
same,Effect (Fold in ATP Efficacy),"[2]; hP2X2, relative to current at 100 µM ATP",1.0 fold
same,Agonist behaviour (current response),"[2]; hP2X2, result in words",full agonist
same,EC50,"[2]; hP2X2, whole-cell, -50 mV, divalent-cation-free bath with 10 mM EGTA, normalised to 100 µM ATP",4.6 ± 0.3 µM
same,Hill,[3],1.6 ± 0.1
same,Effect (Fold in ATP Potency),[3],0.9 fold
same,Effect (Fold in ATP Efficacy),[3],0.8 fold
same,EC50,[3],1.3 ± 0.1 µM
